The text below walks through data of publication PMC6152321, “High-Resolution Inhibition Profiling Combined with HPLC-HRMS-SPE-NMR for Identification of PTP1B Inhibitors from Vietnamese Plants” (Molecules : A Journal of Synthetic Chemistry and Natural …, 2017).

For assay [1], the target named is T1, Recombinant human protein tyrosine phosphatase 1B (PTP1B) (Homo sapiens, UniProt P18031).
T1 construct: purchased Enzo Life Sciences Inc. BML-SE332-0050
T1 sequence (P18031 1-322 limits assumed): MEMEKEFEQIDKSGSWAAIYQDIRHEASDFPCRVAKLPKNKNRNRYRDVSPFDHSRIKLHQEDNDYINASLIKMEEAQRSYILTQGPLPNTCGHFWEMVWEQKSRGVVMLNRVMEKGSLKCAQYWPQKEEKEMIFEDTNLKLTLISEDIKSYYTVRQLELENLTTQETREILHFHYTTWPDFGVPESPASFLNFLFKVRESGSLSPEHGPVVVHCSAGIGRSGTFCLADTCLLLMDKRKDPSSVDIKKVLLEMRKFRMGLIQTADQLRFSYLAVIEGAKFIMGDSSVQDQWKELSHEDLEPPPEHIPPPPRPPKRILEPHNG
Description: In vitro PTP1B inhibition assay (pNPP hydrolysis, absorbance at 405 nm). The assay is classed as biochemical. The following applies: for IC50: isolated compounds, mean ± SD, n = 3. As to the method:
(§1) Based on the method described by Tahtah et al., the PTP1B inhibition assay was performed at 25 °C using a two-component buffer, containing 50 mM Tris, 50 mM bis-Tris and 100 mM NaCl, adjusted to pH 7.0 with acetic acid. The final reaction volume was 180 µL, including 18 µL test sample dissolved in DMSO, 52 µL of buffer with 3.46 mM EDTA (final well concentrations 10% DMSO and 1 mM EDTA), and 60 µL of buffer with 1.5 mM pNPP and 6 mM DTT (final well concentrations 0.5 mM pNPP and 2 mM DTT). After preincubation at 25 °C for 10 min, the reaction was started by addition of 50 µL of 0.001 µg/µL PTP1B stock solution (final well concentration: 0.05 µg/well). The hydrolysis rate of pNPP to release p-nitrophenol was determined by measuring the absorbance at 405 nm every 30 s for 10 min. Preincubation and absorbance measurements were performed with a Multiscan FC microplate photometer with a built-in incubator (Thermo Scientific, Waltham, MA, USA) coupled to SkanIt version 2.5.1 software for data acquisition. The PTP1B inhibitory activity was expressed as percentage inhibition and was calculated using the following formula: % inhibition = (Slopeblank − Slopesample)/Slopeblank × 100
RK682 was used as a positive control and all measurements were performed in triplicate. Dose-response curves and IC50 values were obtained using GraFit version 5 (Erithacus Software Ltd., Horley, UK).

Assay [2] deals with T1, Recombinant human protein tyrosine phosphatase 1B (PTP1B). Description: Kinetics of PTP1B inhibition (Lineweaver-Burk plots, Michaelis-Menten fit). The assay is classed as biochemical. The following applies: for Mode of Inhibition: from Lineweaver-Burk plots; for Ki: pNPP 0.125-4.0 mM, mean ± SD, n = 3. The procedure:
as §1
Enzyme kinetics of isolated PTP1B inhibitors was measured in triplicate using the standard assay conditions described above. Reactions were carried out with increasing concentrations of pNPP (0.125, 0.25, 0.5, 1.0, 2.0 and 4.0 mM) as substrate in the absence and presence of test samples (4 concentrations). The mode of inhibition was determined graphically from the Lineweaver-Burk plots. Kinetic parameters were calculated by fitting the data to the Michaelis–Menten equation using non-linear regression analysis (GraphPad Prism 7.0, GraphPad Software Inc., La Jolla, CA, USA).

Assay [3] relates to PTP1B. The following applies: cited from earlier work; for IC50: read-out: IC50 against PTP1B.

A word on the IC50: it is the concentration needed to halve the response being measured. For orientation: Ki means a measure of affinity in units of concentration, obtained from inhibition or displacement. On to `CC1(C)C=Cc2cc(-c3coc4cc(O)cc(O)c4c3=O)ccc2O1` [Compound 1, isoderrone], for which, in assay [1], the 50% inhibitory concentration (IC50) turned out to be 22.7 ± 1.7 µM. Further, in assay [2], the “Mode of Inhibition” value is recorded as “Non-competitive” and the Ki was 21.3 ± 2.8 µM. Moreover, the “PTP1B inhibition at 25 µM” value in assay [3] (concentration 25 µM) is on record as 78%.

On to `CC1(C)C=Cc2c(cc(O)c3c(=O)c(-c4ccc(O)cc4)coc23)O1` [Compound 2, derrone], for which the half-inhibitory concentration (IC50) in assay [1] is 12.6 ± 1.6 µM. In addition, in assay [2], the “Mode of Inhibition” value is given as “Non-competitive” and the Ki turned out to be 7.9 ± 1.9 µM. The IC50 in assay [3] is 20.63 ± 0.17 µM.

As for `CC1(C)C=Cc2c(cc3occ(-c4ccc(O)cc4)c(=O)c3c2O)O1` [Compound 3, alpinumisoflavone], the IC50 in assay [1] amounted to 21.2 ± 3.8 µM. In addition, in assay [2], the “Mode of Inhibition” value is recorded as “Non-competitive” and the Ki was found to be 14.3 ± 2 µM. In assay [3], the IC50 was 37.52 ± 0.31 µM.

For the molecule `CC(C)=C[C@@H]1C[C@](C)(/C=C/c2cc(-c3coc4cc(O)cc(O)c4c3=O)ccc2O)Oc2ccc(-c3coc4cc(O)cc(O)c4c3=O)cc21` [Compound 4, mucusisoflavone B], in assay [1], the half-inhibitory concentration (IC50) was found to be 2.5 ± 0.2 µM. Also, in assay [2], the “Mode of Inhibition” value is “Non-competitive” and the Ki was 3 ± 0.5 µM.

With `CCCCCCCCCCCCCCCC(=O)C1=C(O)C(CO)OC1=O` (centres unmarked) [RK682, reference compound], the IC50 in assay [1] was determined as 10.4 ± 1.6 µM. Besides, in assay [1] (positive control in crude extract screening), the “IC50 of RK682” value was 3.8 ± 0.6 µg/mL.
